# Where two headings read alike, the source gives them in different places.
# What was measured:
# VEGF = experiment: Western blot of retinal homogenates, VEGF; assay type: in vivo, Sprague–Dawley rats; details: diabetic rats, 40 mg/kg/day scutellarin, 8 weeks, compared to diabetic rats treated with or without Chit-DC
# Description: (§1) Type 2 diabetes was induced in male Sprague–Dawley rats (weighing 230–250 g, Experimental Animal Center of Sun Yat-sen University, China. Certificate No: SCXK (Q) 2011-0029). All animals were housed five per cage in a room and maintained at a constant temperature (22 °C) under a 12/12 h light/dark cycle. All procedures were carried out according to the National Institutes of Health Guide for Care and Use of Laboratory Animals and were approved by the Bioethics Committee of Sun Yat-sen University. Rats were randomly assigned to a control group, a Scu group (normal rats with 40 mg/kg/day scutellarin treatments), and five type II diabetes model groups (n = 8/group). The control and Scu groups were fed for 16 weeks on regular standard diets, while rats from type II diabetes model groups (T2D) were fed a high-fat (HFS, Guangdong Medical Laboratory Animal Center, Guangzhou, China) diet for 16 weeks that consisted of 30% from total kcal from fats, 55% from carbohydrates and 15% from protein. […] Blood glucose and body weight were monitored 3 days after the STZ or citrate buffer injection, and once a week thereafter. […]
# Caco-2 cell monolayers = experiment: Caco-2 cell permeability (AP to BL transport); assay type: in vitro ADME, human; details: estimated from Papp based on the previous research
# Description: (§2) Caco-2 cells were seeded in 12-well transport inserts at a density of 2 × 10^5 cells/cm^2 in DMEM. Cells were maintained at 37 °C in a humidified atmosphere containing 5% CO2 for 21 days. Monolayers with transendothelial electrical resistance values above 300 Ω cm^2 were used in this study. On the day of the transport experiments, the culture medium was replaced with hank’s balanced salt solution (HBSS). Before the assay, Caco-2 cells monolayers was rinsed twice and incubated with the transport medium for an hour. After removing the transport medium, scutellarin, Chit-DC-Scu, Chit-DC-VB12-Scu (10 μg/ml scutellarin) alone or in the presence of IF ([…], 20 μl of a 100 IU/ml solution) were add to the apical side (0.5 ml) and 1.5 ml DMEM was added to the basolateral side of Transwell inserts. Cells were maintained at 37 °C in a humidified atmosphere containing 5% CO2 with orbital shaking at 50 rpm throughout the assay. At pre-determined intervals of 0, 30, 60, 90 and 120 min, 50 μl of transport buffer at the basolateral side was collected and mixed with the same volume of methanol, and an equal amount of DMEM was instantly added to the basolateral side to maintain a constant dissolution volume. The assay was performed in triplicate. Concentrations of scutellarin, Chit-DC-Scu and Chit-DC-VB12-Scu in corresponding samples were assessed by HPLC [35, 36].
# [1] = Caco-2 cell permeability (AP to BL transport); assay type: in vitro ADME, human; details: human; Caco-2 monolayers, 10 μg/ml scutellarin, without IF; read-out: Papp, AP side to BL side
# Description: as §2
# vWF = experiment: Western blot of retinal homogenates, vWF; assay type: in vivo, Sprague–Dawley rats; details: diabetic rats, 40 mg/kg/day scutellarin, 8 weeks, compared to diabetic rats treated with or without Chit-DC
# Description: as §1
# [2] = test system: central retinal artery of type II diabetic rats; experiment: Color Doppler sonography of central retinal vasculature, type 2 diabetic model; assay type: in vivo, Sprague–Dawley rats; details: 40 mg/kg/day scutellarin
# Description: Type 2 diabetes was induced in male Sprague–Dawley rats (weighing 230–250 g, Experimental Animal Center of Sun Yat-sen University, China. Certificate No: SCXK (Q) 2011-0029). All animals were housed five per cage in a room and maintained at a constant temperature (22 °C) under a 12/12 h light/dark cycle. All procedures were carried out according to the National Institutes of Health Guide for Care and Use of Laboratory Animals and were approved by the Bioethics Committee of Sun Yat-sen University. Rats were randomly assigned to a control group, a Scu group (normal rats with 40 mg/kg/day scutellarin treatments), and five type II diabetes model groups (n = 8/group). The control and Scu groups were fed for 16 weeks on regular standard diets, while rats from type II diabetes model groups (T2D) were fed a high-fat (HFS, Guangdong Medical Laboratory Animal Center, Guangzhou, China) diet for 16 weeks that consisted of 30% from total kcal from fats, 55% from carbohydrates and 15% from protein. After 8 weeks on the HFS diet, rats in the T2D groups were fasted overnight and each rat received a single intraperitoneal injection of streptozotocin (STZ, Sigma, USA) at a dose of 30 mg/kg body weight the following morning while the rats in the control group were injected with an equal volume of citrate buffer. The STZ was freshly diluted in citrate buffer (0.1 mol/l, pH 4.0). After the injection, the HFS diet feeding was continued. Blood glucose and body weight were monitored 3 days after the STZ or citrate buffer injection, and once a week thereafter. […]
# Prior to sacrifice, all rats were anesthetized and color Doppler sonography analysis of the right eye was performed. […] At least three measurements were recorded for each animal and the mean of the three readings was taken as the representative value. The resistivity index (RI) of the central retinal artery (CRA) was calculated by subtracting the diastolic velocity (DV) from the peak systolic velocity (SV) and then dividing by the systolic velocity [(SV − DV)/SV] […]
# [3] = cited from earlier work
# VEGFR2 = experiment: Western blot of retinal homogenates, VEGFR2; assay type: in vivo, Sprague–Dawley rats; details: diabetic rats, 40 mg/kg/day scutellarin, 8 weeks, compared to diabetic rats treated with or without Chit-DC
# Description: as §1
# [4] = test system: retina of type II diabetic rats; experiment: Retinal histopathology (hematoxylin and eosin), type 2 diabetic model; assay type: in vivo, Sprague–Dawley rats; details: 40 mg/kg/day scutellarin
# Description: as §1
# [5] = test system: membranes over expressing several common transporters; parameters: method as in PMID 27586020; details: cited from earlier work
# [6] = Pharmacokinetics study in vivo, single oral dose; details: male, Sprague-Dawley, rat, rats, oral gavage, scutellarin dose 40 mg/kg, n = 6, mean ± SD; for half-life: plasma, po, 40 mg/kg
# Description: Male Sprague–Dawley rats (weighing 220–250 g) were fasted for 12 h, but allowed water ad libitum the day before drug administration. Scutellarin, Chit-DC-Scu, and Chit-DC-VB12-Scu were resuspended in PBS and administered to rats (at the same scutellarin dose of 40 mg/kg) by oral gavage. Blood samples (0.2 ml) were collected from the tail vein of each rat before dosing and at 0.25, 0.5, 0.75, 1, 2, 3, 5, 8, 12, 24 h post-dosing. An equal volume of 0.9% saline solution was injected after each collection. Plasma samples were obtained by centrifugation at 10,000 rpm for 10 min immediately after blood collection and were stored at −20 °C until analysis. HPLC (Agilent 1100, USA) was used to determine the concentration of scutellarin in plasma.
# Solubility = assay type: physicochemical
# [7] = T2D rats, intragastric, 8 weeks, compared to DM rats
SMILES,expression of VEGF in the retina (VEGF),scutellarin absorbed by the small intestine (Caco-2 cell monolayers),"Papp at 120 min, 10 μg/ml [1]",expression of vWF in the retina (vWF),"retinal blood flow velocity [2, 7]","retinal resistivity index (RI) [2, 7]",blood flow velocity or RI in normal rats ([2]; normal (non-diabetic) rats),water solubility [3],expression of VEGFR2 in the retina (VEGFR2),retinal morphology (HE staining) in normal rats [4],increase of Papp(AP-BL) [5],half-life ([6]; read-out: T1/2(α) (converted)),half-life ([6]; read-out: T1/2(β) (converted)),Cmax ([6]; plasma scutellarin),Tmax ([6]; plasma scutellarin),solubility in distilled water (Solubility; distilled water),solubility in methanol and PBS solution (Solubility; methanol and PBS solution (pH7.2)),water solubility of triamcinolone acetonide acetate ([3]; free drug versus loaded in deoxycholic acid-modified chitosan nanoparticles)
"O=C(O)[C@H]1O[C@@H](Oc2cc3oc(-c4ccc(O)cc4)cc(=O)c3c(O)c2O)[C@H](O)[C@@H](O)[C@@H]1O [Scu, 4′,5,6-trihydroxyflavone-7-O-glucuronide]",downregulated,about 1%,0.32 ×10⁻⁶ cm/s,downregulated,increased blood flow velocities,reduced retinal RI values,No significant changes in blood flow velocity or RI,160 µg/mL,downregulated,continuous with normal capillary structure,3.5 fold,0.405 ± 0.055 h,1.88 ± 0.105 h,129 ± 85.5 ng/mL,1.24 ± 0.025 h,poorly dissolved,soluble,
CC(=O)OCC(=O)[C@@]12OC(C)(C)O[C@@H]1C[C@H]1[C@@H]3CCC4=CC(=O)C=C[C@]4(C)[C@@]3(F)[C@@H](O)C[C@@]12C [triamcinolone acetonide acetate],,,,,,,,,,,,,,,,,,300 µg/mL

# Source: publication PMC5333415, “Enhancement of scutellarin oral delivery efficacy by vitamin B12-modified amphiphilic chitosan derivatives to treat type II diabetes induced-retinopathy” (Journal of Nanobiotechnology, 2017)
